Data on one compound can be found in article PMC7144320, “Antitumor properties of certain spirooxindoles towards hepatocellular carcinoma endowed with antioxidant activity” (Journal of Enzyme Inhibition and Medicinal Chemistry, 2020).

The structures appear in SMILES notation. Several values for one entry are separate records, joined by “and”; a condition that tells them apart may be missing. Equal values may be shown once.

The subject of assay [1] is caspase-3. As to the kind of experiment: ELISA of active caspase-3 in HepG2 cells. The format is cell-based. To be noted: HepG2 treated at IC50 (6.9 µM). Here is the method:
(§1) The levels of the apoptotic markers caspase-3, caspase-9, p53 and Bax, as well as the anti-apoptotic marker Bcl-2 were evaluated by the use of ELISA colorimetric kits per the manufacturer’s instructions, as reported earlier[28]^,[29]. Furthermore, the pro-apoptotic potential of spirooxindole 6a towards HepG2 cells was assessed using FITC Annexin V Apoptosis Detection Kit by flow cytometry, according to the manufacturer’s protocol and referring to the reported procedures[30]^,[31].
(§2) The elevated Bax/Bcl-2 ratio aroused the assessment of the expression levels of the pro-apoptotic active caspase-3, caspase-9 and p53 tumour suppressor protein.

Assay [2] concerns HepG2 hepatocellular carcinoma cell line. As to the kind of experiment: MTT anti-proliferative assay, HepG2. The format is cell-based. The note with it: Homo sapiens, 48 h of incubation. Here is the method: (§3) Spirooxindoles 6a–p were evaluated for their anti-proliferative potency towards HepG2 liver cancer and PC-3 prostate cancer cell lines. Both cells lines were cultured as monolayers in DMEM supplemented with 10% foetal bovine serum (FBS), L-glutamine (2 mM), penicillin (100 U/mL) and streptomycin sulphate (100 µg/mL). Then, cells were sub-cultured with trypsine/EDTA solution, counted with haemocytometer and plated onto 96-well plates (5000 cells/well) and left overnight so as to form a semi-confluent monolayer.
(§4) Spirooxindoles 6a–p were tested for their in vitro anti-HCC activity against HepG2 cell line, and for their anti-prostate cancer activity against PC-3 cell line by the use of MTT reduction assay. The anticancer drug Adriamycin was co-assayed as the positive control.

In assay [3] the test system is HepG2 cells. Description: Cell cycle analysis (PI staining, flow cytometry). The format is cell-based. The note with it: HepG2, 6.9 µM (IC50), 24 h. How it is done: The samples were analysed by a flow cytometer (BectonDickinson FACSCalibur, BD, USA) and data were analysed using the CellQuest software (Becton Dickinson).
The impact of spirooxindole 6a on the normal cell cycle progression was investigated using flow cytometric analysis of the DNA ploidy in HepG2 cells. […] Alteration of the Pre-G phase and arrest of G2-M phase may imply apoptosis as a potential mechanism for 6a-induced cancer cell death.

For assay [4], the system named is HepG2 hepatocellular carcinoma cell line. Description: MTT anti-proliferative assay, HepG2. The format is cell-based. To be noted: 48 h exposure, phase contrast microscopy.
Assay [5] has as its system Bax. As to the kind of experiment: ELISA of apoptotic marker Bax in HepG2 cells. The format is cell-based. To be noted: HepG2 treated at IC50 (6.9 µM). Here is the method:
as §1
(§5) The Bax/Bcl-2 ratio is considered as a decisive value that gives a real insight to the overall pro-apoptotic impact of the examined compound.

Assay [6] has as its system HepG2 cells. Description: Annexin V-FITC/PI apoptosis assay. To be noted: HepG2, 6.9 µM (IC50). The format is cell-based. Here is the method: as §1
Assay [7] concerns PC-3 prostate cancer cell line. As to the kind of experiment: MTT anti-proliferative assay, PC-3. To be noted: 48 h of incubation. The format is cell-based. Here is the method: as §3, §4
Assay [8] is described as follows: Ferric reducing antioxidant power (FRAP). To be noted: 593 nm, 30 min at 37 °C. Here is the method:
The Benzie and Strain method[33] was adopted to assess the ferric reducing antioxidant power (FRAP) for spirooxindoles 6a–p. Absorbance of mixtures was recorded at 593 nm after incubation for 30 min at 37 °C. FRAP results were expressed as μM Fe^2+ equivalents.
FRAP assay is a widely used antioxidant assay that uses antioxidant substances as reducing agents in a redox-linked colorimetric reaction, wherein Fe^3+ is reduced to Fe^2+ at acidic pH that results in a formation of a coloured ferrous-probe complex from a colourless ferric-probe complex. In this assay, the electron donation capacity (reflecting the electron transfer ability) of the examined compounds is evaluated.
In this study, all spirooxindoles 6a–p herein reported were evaluated for their potential FRAP. The results were expressed as µM Fe^2+ equivalents and presented in Table 6, where the higher µM Fe^2+ equivalents value means higher FRAP and subsequently higher antioxidant capacity.

For assay [9], the system named is non-tumorigenic human breast MCF-10A cell line. As to the kind of experiment: Cytotoxicity towards non-tumorigenic MCF-10A cells. The format is cell-based.
The subject of assay [10] is caspase-9. Description: ELISA of active caspase-9 in HepG2 cells. To be noted: HepG2 treated at IC50 (6.9 µM). The format is cell-based. Here is the method:
as §1, §2

Assay [11] can be described thus: DPPH radical scavenging assay. To be noted: mean ± SD of three experiments; 30 min, 517 nm. How it is done:
The antioxidant potential of spirooxindoles 6a–p against DPPH˙ was evaluated as per previously described procedures by Brand-Williams et al.[32]. DPPH solution was prepared by dissolving 0.024 g DPPH in methanol (100 mL). In 96-well plates, × μL sample and 200-x μL DPPH solution were added. The plate was incubated for 30 min at room temperature in the dark, and finally, absorbance was recorded at 517 nm wavelength. Ascorbic acid was used as positive control. The percent radical scavenging potential was calculated for each compound via the following equation: Scavenging effect (%) = {(Absorbance of control − Absorbance of sample)/Absorbance of control} × 100.
The DPPH (2,2-diphenyl-1-picrylhydrazyl) radical scavenging activity assay is considered as one of the most common and simple methods for measuring the antioxidant ability to trap free radicals. […] Substances that have the potential to act as electron donors result in reduction of this DPPH radical to the corresponding DPPH2 disclosing their antioxidant potential. The principle of the method relies upon measuring the absorbance of the odd electrons of DPPH at 517 nm. The absorbance decreases, in the presence of free radical scavengers, proportional to the decrease of the DPPH radical concentration.

The subject of assay [12] is p53. Description: ELISA of p53 in HepG2 cells. The format is cell-based. To be noted: HepG2 treated at IC50 (6.9 µM). Here is the method:
as §1, §2

The test system of assay [13] is Bcl-2. As to the kind of experiment: ELISA of anti-apoptotic marker Bcl-2 in HepG2 cells. The format is cell-based. The note with it: HepG2 treated at IC50 (6.9 µM). How it is done: as §1, §5

Compound `N#CC1=C(c2ccccc2)Nc2c(c(-c3cccs3)nn2-c2ccccc2)C12C(=O)Nc1ccccc12` (centres unmarked) [Compound 6a] showed a Caspase-3 expression level in [1] of 475.9 pg/mL. In addition, the IC50 in [2] was found to be 6.9 µM. Further, in assay [3], the “decrease of S phase with respect to control” value is roughly 0.37 folds, the “increase of G2/M phase related to control” value is on record as 2.1 folds and the “increase of Pre-G phase related to control” value was found to be 11.9 folds. The “Morphological changes of HepG2 cells” value in assay [4] was “cell rounding, shrinkage and monolayer disruption”. Besides, in [5], the Bax expression level is 232.2 ng/mL; the “Bax, folds of control” value was 5.7 folds of control; the Bax/Bcl-2 ratio was 92.5. For the same compound, the “total increase in apoptosis with respect to control” value in assay [6] was “about 16.3 folds”. The “late apoptosis (upper right quadrant), annexin-V positive cells” value in [6] (control 0.33%) was 14.14%. The “early apoptosis (lower right quadrant), annexin-V positive cells” value in assay [6] (control 0.95%) amounted to 6.76%. Further, in assay [7], the half-maximal inhibitory concentration (IC50) is 11.8 µM. In assay [8], the “FRAP, µM (Fe^2+ Eq.)” value is listed as 11.98 µM (Fe^2+ Eq.). The same compound gave a half-maximal inhibitory concentration (IC50) in assay [9] of 94.6 µM. In [10], the “Caspase-9, folds of control” value is recorded as ~12.27 folds of control and the Caspase-9 expression level is 26.92 ng/mL. Besides, the “DPPH radical scavenging IC50” value in assay [11] is reported as 29.76 ± 1.82 µg/mL. In assay [12], the “p53, folds of control” value was ~10.03 folds of control and ~10 folds of control; the p53 expression level came out at 774.5 pg/mL. Further, in assay [13], the “Bcl-2, folds of control” value is 0.57 folds of control; the Bcl-2 expression level stood at 2.51 ng/mL; the “down-regulation of Bcl-2 expression compared to control” value is roughly 42%.
